Laboratory results published in US8916686B2, “TDF-related compounds and analogs thereof” (Thrasos Innovation, Inc., priority 2004, dated 2014).

B1: BMP-7: bone morphogenetic protein-7 (OP-1, TDF-1); mature form of recombinant human BMP-7 used as positive control (protein)
chain: STGSKQRSQNRSKTPKNQEALRMANVAENSSSDQRQACKKHELYVSFRDLGWQDWIIAPEGYAAYYCEGECAFPLNSYMNATNHAIVQTLVHFINPETVPKPCCAPTQLNAISVLYFDDSSNVILKKYRNMVVRACGCH

Legend:
[1] = system: synovial membrane-derived mesenchymal stem cells; assay: Chondrogenic differentiation, extracellular matrix deposition by alcian blue staining; format: cell-based
Text: Influence of compounds SEQ ID NO 16, 33, 45, 217, 221 on chondrogenic differentiation of synovial membrane-derived mesenchymal stem cells leading to increased extracellular matrix deposition as determined by alcian blue staining. SEQ ID NO:16, 33, 45, 217, and 221 correspond to Compounds E, A, C, B, and D, respectively.
TDFRP compounds can be used to in the prophylaxis or treatment of diseases of the oral cavity, e.g., by affecting direct capping of bioactive molecules, or inducing the formation of reparative dentin and coronal or radicular pulp mineralization (Goldberg et al., Am J. Dent. 2003 February; 16(1):66-76). Further, TDFRP can be used in the prophylaxis or treatment of periodontal disease. […] TDFRP compounds can be used in the prophylaxis or treatment of traumatic brain injury, e.g., stroke, see, e.g., Cairns and Finkelstein, Phys Med Rehabil Clin N Am. 2003 February; 14(1 Suppl):S135-42). Intravenous administration of BMP-7 after ischemia improves motor function in stroke rats (Chang et al., Stroke. 2003 February; 34(2):558-64) and the TDFRP compounds may protect against or repair reperfusion injury. […] Thrasos compounds that bind to ALK3, a type I receptor for BMP, are therefore analyzed to examine if they induce chondrogenic differentiation leading to extra cellular matrix deposition in synovial membrane-derived mesenchymal stem cells. […]

[2] = system: rat osteosarcoma (17/2.8) cells; assay: Rat osteosarcoma (ROS) cell-based alkaline phosphatase assay; conditions: 0.02-200 uM, 2 days; relative to BMP-7 standard
Experimental: BMP interactions with Type I and Type II receptors can induce alkaline phosphatase activity, a marker for osteoblast activity, in ROS cells. An assay procedure as described earlier (Maliakal, J.C., Asahina, I., Hauschka, P. V., and Sampath, T. K. (1994) Growth factors 11, 227-234) was used to determine the biological activities of TDFRP compounds. In a typical experiment, rat osteosarcoma (17/2.8) cells are plated in 96 well plates (3.0×10^4 cells/well) and incubated overnight at 37 C in 5-6% CO2 incubator. The next day, healthy and confluent cells are treated with increasing concentrations of BMP-7 standard (1-10,000 ng/ml) served as positive control or TDFRP compounds (0.02-200 uM) prepared in medium containing 1% FBS and incubated for 2 days at 37 C in 5-6% CO2 incubator. The cellular content of alkaline phosphatase activity is determined by the method of Reddi and Huggins (Reddi, A. H., and Huggins, C. B (1972) Proc. Natl. Acad. Sci. USA 69, 1601-1605). Enzyme estimations are performed in 96 well plates. Following removal of culture medium, cells are washed with pre-warmed PBS (150 ul) and incubated in 100 ul of pre-warmed 1% Triton X-100 for 30 minutes at 37 C. Plates are centrifuged for 10 minutes at full speed, and recovered samples (15 ul) are assayed for enzyme activity by adding 90 ul p-nitrophenyl phosphate (Sigma) as a substrate in 0.05 M glycine-NaOH buffer, pH 9.3 and incubating for 20 minutes at 37 C. The reaction is stopped by adding 75 ul of 0.2 N NaOH/well and absorbance at 405/490 nm is measured on a Dynatech MR 700 plate reader. Results are expressed as relative activities compared to a BMP-7 standard.

[3] = system: rat after ligation of the coronary artery; assay: LAD occlusion model of myocardial injury (ischemia/reperfusion); format: in vivo; conditions: day 7; compound 10 mg/kg i.v., rhmBMP-7 160 μg/kg i.v.
Experimental: The efficacy of compound SEQ ID #45 in ameliorating the effects of myocardial ischemia was investigated in the rat after ligation of the coronary artery. […] unmanipulated rats, sorted into two large groups by initial body weight (>300 g pre-surgery) were evaluated. Fourteen rats underwent surgery on week, 12 rats underwent surgery on week 2 and rats were sorted into 3 treatment groups: Group 1, PBS; Group 2, positive control TDF-1; Group 3, test article SEQ ID #45 (see Table X).
Three days prior to surgery, a serum sample was collected from the tail vein of each rat (pre-bleed). On the day of surgery, each rat was administered compound intravenously 2 hr prior to surgery. Surgery was performed sequentially after intubation and ventilation with 0.5% isofluorane anesthetic. Lead II ECG was monitored throughout the surgery. A thoracotomy was performed and the main left coronary artery was occluded for 20 min using a snare technique (FIG. 16). Successful occlusion of the artery was confirmed by ST elevation in lead II ECG within the first 5 minutes of ligation, and by frequent ventricular arrhythmia after 10 minutes of ligation. The snare was released to restore blood flow. The original suture loop was left in place for subsequent re-occlusion on Day 7. After initiation of reperfusion, the chest cavity was closed with 2 layers of suture. Rats were weaned from the ventilator and observed until fully conscious and mobile. Antibiotic (QD) and analgesic (Q8D) were provided. Additional serum samples were collected 6, 24, 72 and 120 hours post occlusion. Additional compound, positive control or vehicle treatments were delivered by intravenous injection in the tail vein at 24, 72 and 120 hours post occlusion.
On Day 7, each rat was anesthetized (ketamine:xyline), the chest cavity re-opened and a terminal blood sample (1 ml) was withdrawn from the abdominal vein. Gross pathology (i.e. inflammation) was noted and graded on a 4 point inflammation scale: 0=no inflammation, 1=slight, 2=moderate, 3=severe and 4=complete pericarditis. The left coronary artery was then re-occluded using the existing stitch and a concentrated solution of Evans Blue dye in saline (20 mg/ml; 0.5 ml/rat) was injected into the heart apex to stain the non-ischemic cardiac tissue blue. The heart was then arrested by injection of a saturated solution of potassium chloride into the right ventricle. The heart was then excised, wrapped in cellophane and stored at −20° C. for 1.5 hour. The cold heart was cut into 10 cross-sectional slices (2 mm/slice) and each section was numbered and incubated separately in triphenyltetrazolium chloride (1% TTC in PBS) for 10 minutes at 37° C. prior to fixing in 4% formaldehyde. Subsequently, each slice was photographed. For each slice, the “area at risk (AR)” and the “area occupied by necrosis (AN)” were measured by morphometry. The ratio of AN to AR is a measure of the degree of damage resulting from the occlusion (FIG. 17A-FIG. 17B).

[4] = system: mouse model of nephrotoxic serum nephritis; conditions: cited from earlier work
[5] = system: TGF-beta1 induced EMT in epithelial cells; conditions: 100 ng/ml for 48 hours; cited from earlier work

Molecule	deposition of the extracellular matrix [1]	induction of alkaline phosphatase activity [2]	also measured
CIVNSSDDFLCKKYRS [SEQ ID NO 16]	significantly increased the deposition of the extracellular matrix	–	–
CYFDDSSKVICKKYRS [SEQ ID NO 130]	–	did not induce alkaline phosphatase activity	–
CYFDDSSQVLCKKYRS [SEQ ID NO 65]	–	did not induce alkaline phosphatase activity	–
CYFNDSSQVLCKRYRS [SEQ ID NO 221]	significantly increased the deposition of the extracellular matrix	did not induce alkaline phosphatase activity	–
B1	–	–	reduction in AN/AR ratio as compared to PBS-treated animals [3]: 7%; progression to chronic renal disease ([4]; about 300 micrograms/kg, starting after one week of NTN): sufficient to prevent progression to chronic renal disease; renal pathology ([4]; treatment from week 3 through week 6 and from week 4 through week 6): almost completely reversed renal pathology; reversal of TGF-beta1 induced EMT [5]: reverses TGF-beta1 induced EMT
